Literature values as cited in patent publication US20200000714A1, “OPHTHALMIC COMPOSITION COMPRISING PVP-I” (MEDIVIS S.R.L., priority 2016, published 2020).
Read-outs that look alike come from different tables or passages of the source.

Povidone-iodine [PVP-I]
free molecular iodine I2 concentration (10% solutions of PVP-I): about 1 ppm
free molecular iodine I2 concentration (solutions with PVP-I concentration of 0.1%): about 20 ppm
